Key:
[1] = target: T1, human PDE5 (Homo sapiens, UniProt O76074); experiment: Inhibition of PDE5 activity (platelet lysate, SPA assay); assay type: biochemical; settings: 0.5 μM cGMP, read-out: PDE5 Inhibitory values measured as -logIC50 (converted)
T1 construct: from tissue; host or cells: human platelets from fresh donor blood (platelet lysate)
Outline: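 Human platelet lysate (10,000 g supernatant) served as PDE5 source, with 1 μM motapizone and 10 nM PDE2 inhibitor added, in Tris pH 7.4, 5 mM Mg2+, BSA. Substrate 0.5 μM [3H]cGMP, 10–20% conversion; 5 min preincubation then 15 min at 37 °C, stopped by SPA beads with IBMX. IC50 by non-linear regression.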

[2] = target: T2, PDE4B1 (Homo sapiens, UniProt Q07343); experiment: Inhibition of PDE4 activity (PDE4B1, SPA assay); assay type: biochemical; settings: recombinant PDE4B1, 0.5 μM cAMP; read-out: PDE4B1 Inhibitory values measured as -logIC50 (converted)
T2 construct: made in house; host or cells: SF21 insect cells (baculovirus; virus made in SF9 cells, pCR-Bac vector)
T2 sequence (Q07343 whole entry): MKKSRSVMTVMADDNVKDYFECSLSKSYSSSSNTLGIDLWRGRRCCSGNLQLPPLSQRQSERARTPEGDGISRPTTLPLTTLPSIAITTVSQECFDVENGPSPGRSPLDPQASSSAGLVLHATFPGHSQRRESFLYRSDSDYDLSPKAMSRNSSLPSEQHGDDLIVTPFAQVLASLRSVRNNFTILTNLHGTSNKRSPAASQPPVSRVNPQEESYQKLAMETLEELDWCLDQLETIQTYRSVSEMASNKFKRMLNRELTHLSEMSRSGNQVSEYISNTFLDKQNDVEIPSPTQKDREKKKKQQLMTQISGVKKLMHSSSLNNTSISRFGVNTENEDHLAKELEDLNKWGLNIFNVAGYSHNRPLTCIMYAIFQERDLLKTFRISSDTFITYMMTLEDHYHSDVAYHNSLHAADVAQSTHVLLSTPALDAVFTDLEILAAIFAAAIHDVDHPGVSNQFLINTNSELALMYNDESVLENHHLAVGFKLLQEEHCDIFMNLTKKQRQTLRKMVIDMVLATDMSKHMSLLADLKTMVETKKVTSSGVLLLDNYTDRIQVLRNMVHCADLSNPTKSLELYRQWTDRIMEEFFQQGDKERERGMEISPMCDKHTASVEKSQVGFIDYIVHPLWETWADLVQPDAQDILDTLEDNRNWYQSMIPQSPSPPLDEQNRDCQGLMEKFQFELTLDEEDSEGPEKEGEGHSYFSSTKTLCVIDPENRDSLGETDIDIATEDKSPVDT
Outline: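 Baculovirus-expressed enzyme from SF21 cell 1000×g supernatant; substrate 0.5 μM [3H]cAMP in 20 mM Tris pH 7.4, 5 mM Mg2+, 0.1 mg/ml BSA, 10-20% conversion. 5 min preincubation at 37 °C, 15 min reaction, stopped by SPA beads with IBMX; IC50 by non-linear regression.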

Structure (SMILES) | IC50 [1] [nM] | IC50 [2] [nM]
COc1ccc(C2=NN(C3CCN(C(=O)[C@@H](Cc4ccc(-c5ccccc5)cc4)NC(=O)c4c[nH]c5c(-c6c(OCC7CC7)ccc7c6OCO7)ncnc45)CC3)C(=O)[C@@H]3CCCC[C@H]23)cc1OC [Example 13, N-[(2R)-3-(biphenyl-4-yl)-1-{4-[(4aS,8aR)-4-(3,4-dimethoxyphenyl)-1-oxo-4a,5,6,7,8,8a-hexahydrophthalazin-2(1H)-yl]piperidin-1-yl}-1-oxopropan-2-yl]-4-[5-(cyclopropylmethoxy)-1,3-benzodioxol-4-yl]-5H-pyrrolo[3,2-d]pyrimidine-7-carboxamide] | 1 to 10 | < 1
COc1ccc(C2=NN(C3CCN(C(=O)[C@@H](Cc4cc(F)cc(F)c4)NC(=O)c4c[nH]c5c(-c6c(OCC7CC7)ccc7c6OCO7)ncnc45)CC3)C(=O)[C@@H]3CCCC[C@H]23)cc1OC [Example 1, 4-[5-(cyclopropylmethoxy)-1,3-benzodioxol-4-yl]-N-[(2R)-3-(3,5-difluorophenyl)-1-{4-[(4aS,8aR)-4-(3,4-dimethoxyphenyl)-1-oxo-4a,5,6,7,8,8a-hexahydrophthalazin-2(1H)-yl]piperidin-1-yl}-1-oxopropan-2-yl]-5H-pyrrolo[3,2-d]pyrimidine-7-carboxamide] | 1 to 10 | < 1
CCOc1ccc(C[C@@H](NC(=O)c2c[nH]c3c(-c4c(OCC5CC5)ccc5c4OCO5)ncnc23)C(=O)N2CCC(N3N=C(c4ccc(OC)c(OC)c4)[C@H]4CCCC[C@H]4C3=O)CC2)cc1 [Example 9, 4-[5-(cyclopropylmethoxy)-1,3-benzodioxol-4-yl]-N-[(2R)-1-{4-[(4aS,8aR)-4-(3,4-dimethoxyphenyl)-1-oxo-4a,5,6,7,8,8a-hexahydrophthalazin-2(1H)-yl]piperidin-1-yl}-3-(4-ethoxyphenyl)-1-oxopropan-2-yl]-5H-pyrrolo[3,2-d]pyrimidine-7-carboxamide] | < 1 | < 1
COc1ccc(C2=NN(C3CCN(C(=O)[C@@H](Cc4ccc(Cl)cc4)NC(=O)c4c[nH]c5c(-c6c(OCC7CC7)ccc7c6OCO7)ncnc45)CC3)C(=O)[C@@H]3CCCC[C@H]23)cc1OC [Example 27, N-[(2R)-3-(4-chlorophenyl)-1-{4-[(4aS,8aR)-4-(3,4-dimethoxyphenyl)-1-oxo-4a,5,6,7,8,8a-hexahydrophthalazin-2(1H)-yl]piperidin-1-yl}-1-oxopropan-2-yl]-4-[5-(cyclopropylmethoxy)-1,3-benzodioxol-4-yl]-5H-pyrrolo[3,2-d]pyrimidine-7-carboxamide] | < 1 | 1 to 10

Continued, values first:

IC50 [1] [nM] | IC50 [2] [nM] | Structure (SMILES)
< 1 | < 1 | COc1ccc(C2=NN(C3CCN(C(=O)[C@@H](Cc4ccncc4)NC(=O)c4c[nH]c5c(-c6c(OCC7CC7)ccc7c6OCO7)ncnc45)CC3)C(=O)[C@@H]3CCCC[C@H]23)cc1OC [Example 109, 4-[5-(cyclopropylmethoxy)-1,3-benzodioxol-4-yl]-N-[(2R)-1-{4-[(4aS,8aR)-4-(3,4-dimethoxyphenyl)-1-oxo-4a,5,6,7,8,8a-hexahydrophthalazin-2(1H)-yl]piperidin-1-yl}-1-oxo-3-(pyridin-4-yl)propan-2-yl]-5H-pyrrolo[3,2-d]pyrimidine-7-carboxamide]
1 to 10 | 1 to 10 | COc1ccc(C2=NN(C3CCN(C(=O)[C@@H](Cc4ccccc4)NC(=O)c4c[nH]c5c(-c6c(OCC7CC7)ccc7c6OCO7)ncnc45)CC3)C(=O)[C@@H]3CCC[C@H]23)cc1OC [Example 55, 4-[5-(cyclopropylmethoxy)-1,3-benzodioxol-4-yl]-N-[(2R)-1-{4-[(4aS,7aR)-4-(3,4-dimethoxyphenyl)-1-oxo-1,4a,5,6,7,7a-hexahydro-2H-cyclopenta[d]pyridazin-2-yl]piperidin-1-yl}-1-oxo-3-phenylpropan-2-yl]-5H-pyrrolo[3,2-d]pyrimidine-7-carboxamide]

— patent US20160108049A1 (TAKEDA Gmbh, priority 2011, published 2016)
